# Data reported in patent US7205403B2, “8-Heteroaryl xanthine adenosine A2B receptor antagonists” (King Pharmaceuticals Research and Development, Inc., priority 2002, dated 2007).
# “Also recorded” adds a separate entry of the source. Read-outs that look alike come from different tables or passages of the source.
# Key:
# [1] = target: T1, human A1 adenosine receptor (Homo sapiens, UniProt P30542); assay: [3H]DPCPX binding to human A1 receptors expressed in CHO cells
# T1 construct: expressed in transfected cells; host or cells: CHO cells (membranes)
# T1 sequence (P30542 1-326): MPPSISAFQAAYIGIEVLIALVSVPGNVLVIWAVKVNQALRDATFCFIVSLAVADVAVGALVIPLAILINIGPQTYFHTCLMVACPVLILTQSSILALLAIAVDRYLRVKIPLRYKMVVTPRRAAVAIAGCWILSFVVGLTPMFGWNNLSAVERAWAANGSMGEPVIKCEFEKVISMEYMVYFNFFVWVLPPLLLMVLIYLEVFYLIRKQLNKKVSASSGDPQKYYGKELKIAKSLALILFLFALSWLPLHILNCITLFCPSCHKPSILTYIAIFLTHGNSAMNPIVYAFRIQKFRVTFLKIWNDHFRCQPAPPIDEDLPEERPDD
# Description: The cells were grown adherently and maintained in Dulbecco's modified Eagle's medium with nutrient mixture F12 without nucleosides at 37° C. in 5% CO2/95% air. The cells were washed with phosphate-buffered saline and scraped off flasks in ice cold hypotonic buffer ([…] Tris HCl, 2 mM EDTA, pH 7.4). The cell suspension was homogenized with a Polytron and the homogenate was centrifuged for 30 minutes at 48,000 g. The resultant membrane pellet was re-suspended in 50 mM Tris HCl buffer at pH 7.4 for A1 adenosine receptors; in 50 mM Tris HCl 10 mM MgCl, at pH 7.4 for A2A adenosine receptors; in 50 mM Tris HCl, 10 mM MgCl2, 1 mM EDTA, at pH 7.4 for A3 adenosine receptors and were utilized for binding assays.
# Displacement experiments were performed for 120 minutes at 25° C. in 200 μl of buffer containing 1 nM ^3H]-DPCPX 20 μl of diluted membranes (50 μg of protein/assay) and at least 6 to 8 different concentrations of examined compounds.
# The filter bound radioactivity was counted on Top Count (efficiency 57%) with Micro-Scint 20.
# The filter bound radioactivity was counted on a Top Count brand Microplate Scintillation Counter (efficiency 57%) with Micro-Scint 20. […] Inhibitory binding constant. […] Results and Discussion
# [2] = target: T2, human A2A adenosine receptor (Homo sapiens, UniProt P29274); assay: [3H]ZM241385 binding to human A2A receptors expressed in CHO cells; conditions: for Ki: read-out: Ki, [3H]ZM241385 binding to human A2A receptors expressed in CHO cells; for Ki, [3H]ZM241385 binding to human A2A receptors expressed in CHO cells: geometric mean (95% confidence interval), >1000 = no appreciable binding
# T2 construct: expressed in transfected cells; host or cells: CHO cells (membranes)
# Procedure, shortened: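 Membranes from adherent CHO cells, resuspended in 50 mM Tris HCl with 10 mM MgCl2, pH 7.4. The inhibitory binding constant is reported.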
# [3] = target: T3, human A3 adenosine receptor (Homo sapiens, UniProt P0DMS8); assay: [3H]MRE3008F20 binding to human A3 receptors expressed in CHO cells; conditions: for Ki, [3H]MRE3008F20 binding to human A3 receptors expressed in CHO cells: geometric mean (95% confidence interval), >1000 = no appreciable binding
# T3 construct: expressed in transfected cells; host or cells: CHO cells (membranes)
# T3 sequence (P0DMS8 1-318): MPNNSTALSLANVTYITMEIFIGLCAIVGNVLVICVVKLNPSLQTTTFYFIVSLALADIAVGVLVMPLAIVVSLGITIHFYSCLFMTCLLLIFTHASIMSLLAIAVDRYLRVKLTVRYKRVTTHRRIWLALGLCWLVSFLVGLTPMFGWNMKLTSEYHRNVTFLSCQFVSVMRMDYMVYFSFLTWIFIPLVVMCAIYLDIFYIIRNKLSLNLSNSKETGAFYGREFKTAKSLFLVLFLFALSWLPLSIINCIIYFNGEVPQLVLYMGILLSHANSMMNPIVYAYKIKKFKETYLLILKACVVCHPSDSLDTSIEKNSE
# Procedure, shortened: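 CHO cell membranes (50 μg protein) competed against 1 nM [3H]-MRE3008-F20 in 50 mM Tris HCl, MgCl2, pH 7.4, with 6–8 ligand concentrations in duplicate, 120 minutes at 4° C. Filter-bound radioactivity counted by scintillation; inhibitory binding constants derived.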
# [4] = target: T4, human A2B adenosine receptor (Homo sapiens, UniProt P29275); assay: Cyclic AMP assay, antagonism of NECA-stimulated cAMP in CHO cells transfected with human A2B receptors; assay type: cell-based; conditions: inhibition of NECA (100 nM)-stimulated cAMP; geometric mean (95% confidence limits)
# T4 sequence (P29275 1-332): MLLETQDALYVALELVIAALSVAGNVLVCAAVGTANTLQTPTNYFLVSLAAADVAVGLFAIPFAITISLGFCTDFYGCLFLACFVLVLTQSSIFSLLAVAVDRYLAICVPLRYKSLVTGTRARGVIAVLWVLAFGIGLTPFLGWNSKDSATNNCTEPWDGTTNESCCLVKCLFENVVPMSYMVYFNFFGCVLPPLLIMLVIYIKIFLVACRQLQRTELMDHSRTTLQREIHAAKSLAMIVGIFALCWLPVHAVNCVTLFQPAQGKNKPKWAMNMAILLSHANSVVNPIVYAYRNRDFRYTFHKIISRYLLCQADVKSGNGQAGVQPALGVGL
# Description: Measurement of cyclic AMP (CAMP) levels in CHO cells transfected with human A2B adenosine receptors was performed in the following manner. CHO cells transfected with human A2B adenosine receptors were washed with phosphate-buffered saline, diluted tripsine and centrifuged for 10 minutes at 200 g.
# The reaction was terminated by the addition of cold 6% thrichloroacetic acid (TCA). The TCA suspension was centrifuged at 2000 g for 10 minutes at 4° C. and the supernatant was extracted four times with water saturated diethyl ether. The final aqueous, solution was tested for cAMP levels by a competition protein binding assay. Samples of cAMP standard (0–10 pmoles) were added to each test tube containing the incubation buffer (trizma base 0.1 M, aminophylline 8.0 mM, 2-mercaptoethanol 6.0 mM, pH 7.4) and [H^3]-cAMP in a total volume of 0.5 ml. The binding protein previously prepared from beef adrenals, was added to the samples previously incubated at 4° C. for 150 minutes, and after the addition of charcoal were centrifuged at 2000 g for 10 minutes. The clear supernatant was counted in a Beckman scintillation counter.
# Finally, to evaluate the regulation of adenylyl cyclase activity and to test whether the binding parameters correlated with the functional response, the IC50 values were obtained for inhibition of cAMP production by antagonists. In particular, we evaluated the capability of the several compounds to inhibit NECA (100 nM)-stimulated cyclic AMP accumulation.
# [5] = target: T4, human A2B adenosine receptor; assay: [3H]DPCPX binding to human A2B receptors expressed in HEK293 cells; design: host or cells: HEK 293 cells (membranes)
# Procedure, shortened: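 Membranes (20 μg protein) from HEK293 cells expressing recombinant human A2B receptor were incubated 60 min at 25° C with 40 nM [3H]-DPCPX and 6–8 compound concentrations. Buffer was Tris-HCl with MgCl2, 1 mM EDTA, 0.1 mM benzamidine and 2 IU/ml adenosine deaminase, pH 7.4. Filter-bound radioactivity gave the inhibitory binding constant.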
# [6] = geometric mean (95% confidence interval), >1000 = no appreciable binding
# [7] = Table 2, geometric mean (95% confidence limits), at least three experiments in duplicate, read-out: [3H]-DPCPX binding to human A2B receptors in HEK 293 cells Ki
# [8] = geometric mean (95% confidence interval), >1000 = no appreciable binding, read-out: Ki, [3H]DPCPX binding to human A2B receptors expressed in HEK293 cells
# T2 sequence (P29274 whole entry): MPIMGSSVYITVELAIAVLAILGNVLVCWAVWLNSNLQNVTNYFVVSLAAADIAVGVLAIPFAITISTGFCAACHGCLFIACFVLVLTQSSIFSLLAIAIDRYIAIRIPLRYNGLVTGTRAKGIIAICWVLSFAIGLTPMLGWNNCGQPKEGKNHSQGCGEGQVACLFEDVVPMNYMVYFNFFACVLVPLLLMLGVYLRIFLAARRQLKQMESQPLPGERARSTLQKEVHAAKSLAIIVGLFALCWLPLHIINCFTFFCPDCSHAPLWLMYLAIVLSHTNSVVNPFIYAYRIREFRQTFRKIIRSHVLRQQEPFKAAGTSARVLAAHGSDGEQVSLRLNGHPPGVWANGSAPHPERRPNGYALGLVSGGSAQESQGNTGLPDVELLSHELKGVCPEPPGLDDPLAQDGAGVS
SMILES,"Ki [1, 6]",Ki [2],Ki [3],IC50 [4],"Ki [5, 7]","Ki [5, 8]","Ki, [3H]DPCPX binding to human A1 receptors expressed in CHO cells [1, 6]","Ki, [3H]ZM241385 binding to human A2A receptors expressed in CHO cells [2]","Ki, [3H]MRE3008F20 binding to human A3 receptors expressed in CHO cells [3]",Ki [1]
"CCCn1c(=O)c2[nH]c(-c3cc(NC(=O)Cc4ccccc4)nn3C)nc2n(CCC)c1=O [AS11, N-[5-(2,6-dioxo-1,3-dipropyl-2,3,6,9-tetrahydro-1H-purin-8-yl)-1-methyl-1H-pyrazol-3-yl]-2-phenylacetamide]",900 nM,> 1000 nM,> 1000 nM,103 nM,35 nM,35 nM,,,,
"CCCn1c(=O)c2[nH]c(-c3cc(NC(=O)Cc4ccc(Cl)cc4)nn3C)nc2n(CCC)c1=O [AS27, N-[5-(2,6-dioxo-1,3-dipropyl-2,3,6,9-tetrahydro-1H-purin-8-yl)-1-methyl-1H-pyrazol-3-yl]-2-(4-chlorophenyl)acetamide]",520 nM,> 1000 nM,> 1000 nM,128 nM,28 nM,28 nM,,,,
"CCCn1c(=O)c2[nH]c(-c3cc(NC(=O)Cc4ccc(OC)c(OC)c4)nn3C)nc2n(CCC)c1=O [AS28, 2-(3,4-dimethoxyphenyl)-N-[5-(2,6-dioxo-1,3-dipropyl-2,3,6,9-tetrahydro-1H-purin-8-yl)-1-methyl-1H-pyrazol-3-yl]acetamide]",,> 1000 nM,> 1000 nM,120 nM,38 nM,38 nM,no appreciable binding; also recorded: without significant binding,no appreciable binding; also recorded: without significant binding,no appreciable binding; also recorded: without significant binding,
CCCn1c(=O)c2[nH]c(-c3cc(NC(=O)Cc4ccccc4)n(C)n3)nc2n(CCC)c1=O [AS35],,,,152 nM,34 nM,34 nM,,,,
"CCCn1c(=O)c2[nH]c(-c3cc(OCC(=O)Nc4ccc(F)cc4)n(C)n3)nc2n(CCC)c1=O [AS61, N-(4-fluorophenyl)-2-{[3-(2,6-dioxo-1,3-dipropyl-2,3,6,9-tetrahydro-1H-purin-8-yl)-1-methyl-1H-pyrazol-5-yl]oxy}acetamide]",181 nM,> 1000 nM,> 1000 nM,,,185 nM,,,,
"CC(C)Cn1c(=O)c2[nH]c(-c3cc(OCC(=O)Nc4ccc(F)cc4)n(C)n3)nc2n(CC(C)C)c1=O [AS62, 2-{[3-(1,3-diisobutyl-2,6-dioxo-2,3,6,9-tetrahydro-1H-purin-8-yl)-1-methyl-1H-pyrazol-5-yl]oxy}-N-(4-fluorophenyl)acetamide]",72 nM,> 1000 nM,> 1000 nM,,,207 nM,,,,
"CC(C)Cn1c(=O)c2[nH]c(-c3cc(OCC(=O)Nc4ccc(Br)cc4)n(C)n3)nc2n(CC(C)C)c1=O [AS63, 2-{[3-(1,3-diisobutyl-2,6-dioxo-2,3,6,9-tetrahydro-1H-purin-8-yl)-1-methyl-1H-pyrazol-5-yl]oxy}-N-(4-bromophenyl)acetamide]",49 nM,> 1000 nM,> 1000 nM,,,66 nM,,,,
"CC(C)Cn1c(=O)c2[nH]c(-c3cc(OCC(=O)Nc4ccc(Br)cc4)nn3C)nc2n(CC(C)C)c1=O [AS67, 2-{[5-(1,3-diisobutyl-2,6-dioxo-2,3,6,9-tetrahydro-1H-purin-8-yl)-1-methyl-1H-pyrazol-3-yl]oxy}-N-(4-bromophenyl)acetamide]",2430 nM,> 1000 nM,> 1000 nM,,,132 nM,,,,
CCCn1c(=O)c2[nH]c(-c3cc(OCC(=O)Nc4ccc(C(C)=O)cc4)nn3C)nc2n(CCC)c1=O [AS69],,,,,,86 nM,without significant binding,without significant binding,without significant binding,
"CCCn1c(=O)c2[nH]c(-c3cc(OCC(=O)N4CCN(c5ccccc5)CC4)nn3C)nc2n(CCC)c1=O [AS70, 1,3-di-n-propyl-8-{5-[2-oxo-2-(4-phenyl-piperazin-1-yl)-ethoxy]-2-methyl-2H-pyrazole-3-yl}-xanthine]",250 nM,> 1000 nM,> 1000 nM,,,15 nM,,,,
CCCn1c(=O)c2[nH]c(-c3cc(OCC(=O)Nc4ccc(C)cc4)nn3C)nc2n(CCC)c1=O [AS92],79 nM,> 1000 nM,> 1000 nM,,,19 nM,,,,
"CCCn1c(=O)c2[nH]c(-c3cc(OCC(=O)Nc4ccc(C)c(C)c4)nn3C)nc2n(CCC)c1=O [AS99, 1,3-di-n-propyl-8-{5-[(3,4-dimethyl-phenylcarbamoyl)-methoxy]-2-methyl-2H-pyrazole-3-yl}-xanthine]",700 nM,> 1000 nM,> 1000 nM,,,10 nM,,,,
"CCCn1c(=O)c2[nH]c(-c3cc(OCC(=O)Nc4ccc(Cl)c(Cl)c4)nn3C)nc2n(CCC)c1=O [AS100, 1,3-di-n-propyl-8-{5-[(3,4-chloro-phenylcarbamoyl)-methoxy]-2-methyl-2H-pyrazole-3-yl}-xanthine]",300 nM,> 1000 nM,> 1000 nM,,,16 nM,,,,
"CCCn1c(=O)c2[nH]c(-c3ccc(O)nc3)nc2n(CCC)c1=O [AS103, 1,3-di-n-propyl-8-(2-hydroxypyridin-5-yl)-xanthine]",,606 nM,116 nM,,,4.9 nM,,,,81 nM
